Reference: PubChem BioAssay (NCI)
Values joined by “and” are separate entries in the source; they are usually repeats but may differ in a detail not shown here. Equal entries are not always repeated.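 These data come from cells grown in 96-well plates and exposed to compound for 48 hours at five concentrations. At the GI50, growth is halved. TGI is the concentration that stops growth completely.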 Where a SMILES comes first, the peptide text is derived from it. [ ]: non-standard residue; d: D form. The star is where a group is joined. Dolaproine = CO[C@@H]([C@@H]1CCCN1)[C@@H](C)C(=O)O; Dil = CC[C@H](C)[C@H](NC)[C@@H](CC(=O)O)OC; X2 = C[C@@H](N*)[C@@H](O)c1ccccc1; NMeV = CN[C@H](C(=O)O)C(C)C

Assays:
Experiment in all cases: NCI-60 cell line screen, 48 h
SN12C renal = test system: SN12C renal
HOP-62 NSCLC = test system: HOP-62 NSCLC
UACC-62 melanoma = test system: UACC-62 melanoma
NCI-H460 lung = test system: NCI-H460 lung
NCI-H23 lung = test system: NCI-H23 lung
HCT-116 colon = test system: HCT-116 colon
786-0 renal = test system: 786-0 renal
ACHN renal = test system: ACHN renal
BT-549 breast = test system: BT-549 breast
SF-539 CNS = test system: SF-539 CNS
OVCAR-8 ovarian = test system: OVCAR-8 ovarian
HL-60(TB) leukemia = test system: HL-60(TB) leukemia
HCT-15 colon = test system: HCT-15 colon
SK-MEL-2 melanoma = test system: SK-MEL-2 melanoma
MOLT-4 leukemia = test system: MOLT-4 leukemia
PC-3 prostate = test system: PC-3 prostate
SK-MEL-5 melanoma = test system: SK-MEL-5 melanoma
UO-31 renal = test system: UO-31 renal
IGROV1 ovarian = test system: IGROV1 ovarian
MALME-3M melanoma = test system: MALME-3M melanoma
M14 melanoma = test system: M14 melanoma
MDA-MB-231 breast = test system: MDA-MB-231 breast
RPMI-8226 leukemia = test system: RPMI-8226 leukemia
SNB-75 CNS = test system: SNB-75 CNS
SF-295 CNS = test system: SF-295 CNS
SNB-19 CNS = test system: SNB-19 CNS
HT29 colon = test system: HT29 colon
MCF7 breast = test system: MCF7 breast
A549 NSCLC = test system: A549 NSCLC
HS 578T breast = test system: HS 578T breast
EKVX NSCLC = test system: EKVX NSCLC
CAKI-1 renal = test system: CAKI-1 renal
NCI/ADR-RES ovarian = test system: NCI/ADR-RES ovarian
TK-10 renal = test system: TK-10 renal
MDA-MB-435 = test system: MDA-MB-435
OVCAR-4 ovarian = test system: OVCAR-4 ovarian
SF-268 CNS = test system: SF-268 CNS
CCRF-CEM leukemia = test system: CCRF-CEM leukemia
COLO 205 colon = test system: COLO 205 colon
LOX IMVI melanoma = test system: LOX IMVI melanoma
UACC-257 melanoma = test system: UACC-257 melanoma
OVCAR-5 ovarian = test system: OVCAR-5 ovarian
NCI-H522 lung = test system: NCI-H522 lung
OVCAR-3 ovarian = test system: OVCAR-3 ovarian
U251 CNS = test system: U251 CNS
NCI-H226 lung = test system: NCI-H226 lung
HOP-92 NSCLC = test system: HOP-92 NSCLC
KM12 colon = test system: KM12 colon
HCC-2998 colon = test system: HCC-2998 colon
A498 renal = test system: A498 renal
K-562 leukemia = test system: K-562 leukemia
SK-OV-3 ovarian = test system: SK-OV-3 ovarian
SR leukemia = test system: SR leukemia
SW-620 colon = test system: SW-620 colon
DU-145 prostate = test system: DU-145 prostate
SK-MEL-28 melanoma = test system: SK-MEL-28 melanoma
T-47D breast = test system: T-47D breast

Compound: CC[C@H](C)[C@@H]([C@@H](CC(=O)N1CCC[C@H]1[C@H](OC)[C@@H](C)C(=O)N[C@H](C)[C@@H](O)c1ccccc1)OC)N(C)C(=O)[C@@H](NC(=O)[C@@H](NC)C(C)C)C(C)C (H-[NMeV]V[Dil][Dolaproine]-X2)
- GI50 (SN12C renal): < 0.005 µM
- TGI (SN12C renal): > 100 µM
- GI50 (HOP-62 NSCLC): < 0.005 µM
- TGI (HOP-62 NSCLC): > 100 µM
- GI50 (UACC-62 melanoma): < 0.005 µM
- TGI (UACC-62 melanoma): > 100 µM
- GI50 (NCI-H460 lung): < 0.005 µM
- TGI (NCI-H460 lung): > 100 µM
- GI50 (NCI-H23 lung): < 0.005 µM
- TGI (NCI-H23 lung): > 50 µM
- GI50 (HCT-116 colon): < 0.01 µM
- TGI (HCT-116 colon): > 100 µM
- GI50 (786-0 renal): 0.00646 µM and < 0.01 µM
- TGI (786-0 renal): > 100 µM
- GI50 (ACHN renal): 0.024 µM and 0.0202 µM
- TGI (ACHN renal): > 100 µM
- GI50 (BT-549 breast): < 0.005 µM and 0.0141 µM
- TGI (BT-549 breast): 0.0507 µM and 0.0821 µM
- GI50 (SF-539 CNS): < 0.005 µM
- TGI (SF-539 CNS): 0.0128 µM and < 0.0107 µM
- GI50 (OVCAR-8 ovarian): 0.00764 µM and < 0.01 µM
- TGI (OVCAR-8 ovarian): > 50 µM
- GI50 (HL-60(TB) leukemia): < 0.005 µM
- TGI (HL-60(TB) leukemia): 0.00787 µM and < 0.01 µM
- GI50 (HCT-15 colon): 0.0444 µM and 0.0233 µM
- TGI (HCT-15 colon): > 100 µM
- GI50 (SK-MEL-2 melanoma): < 0.005 µM
- TGI (SK-MEL-2 melanoma): > 100 µM
- GI50 (MOLT-4 leukemia): < 0.005 µM
- TGI (MOLT-4 leukemia): > 100 µM
- GI50 (PC-3 prostate): < 0.005 µM
- TGI (PC-3 prostate): > 100 µM
- GI50 (SK-MEL-5 melanoma): < 0.005 µM
- TGI (SK-MEL-5 melanoma): 0.0505 µM and 0.0772 µM
- GI50 (UO-31 renal): 0.0419 µM
- TGI (UO-31 renal): > 100 µM
- GI50 (IGROV1 ovarian): 0.00831 µM and < 0.01 µM
- TGI (IGROV1 ovarian): > 100 µM
- TGI (MALME-3M melanoma): > 100 µM
- GI50 (M14 melanoma): < 0.005 µM
- TGI (M14 melanoma): 0.00705 µM
- GI50 (MDA-MB-231 breast): < 0.005 µM
- TGI (MDA-MB-231 breast): > 13.1 µM and 1.84 µM
- GI50 (RPMI-8226 leukemia): < 0.005 µM
- TGI (RPMI-8226 leukemia): > 100 µM
- GI50 (SNB-75 CNS): < 0.005 µM
- TGI (SNB-75 CNS): > 50 µM
- GI50 (SF-295 CNS): < 0.005 µM
- TGI (SF-295 CNS): > 100 µM
- GI50 (SNB-19 CNS): < 0.005 µM
- TGI (SNB-19 CNS): > 100 µM
- GI50 (HT29 colon): < 0.005 µM
- TGI (HT29 colon): 0.154 µM
- GI50 (MCF7 breast): < 0.005 µM
- TGI (MCF7 breast): > 100 µM
- GI50 (A549 NSCLC): < 0.005 µM
- TGI (A549 NSCLC): > 100 µM
- GI50 (HS 578T breast): 0.0101 µM and < 0.01 µM
- TGI (HS 578T breast): > 100 µM
- GI50 (EKVX NSCLC): 0.00692 µM and < 0.01 µM
- TGI (EKVX NSCLC): > 100 µM
- GI50 (CAKI-1 renal): < 0.01 µM
- TGI (CAKI-1 renal): > 94.8 µM
- GI50 (NCI/ADR-RES ovarian): 0.169 µM and 0.118 µM
- TGI (NCI/ADR-RES ovarian): > 50 µM and 9.41 µM
- GI50 (TK-10 renal): > 100 µM
- TGI (TK-10 renal): > 100 µM
- GI50 (MDA-MB-435): < 0.005 µM
- TGI (MDA-MB-435): < 0.005 µM
- TGI (OVCAR-4 ovarian): > 100 µM
- GI50 (SF-268 CNS): 0.00638 µM and < 0.0108 µM
- TGI (SF-268 CNS): > 100 µM
- GI50 (CCRF-CEM leukemia): < 0.005 µM
- TGI (CCRF-CEM leukemia): > 100 µM
- GI50 (COLO 205 colon): < 0.005 µM
- TGI (COLO 205 colon): < 0.005 µM
- GI50 (LOX IMVI melanoma): < 0.005 µM
- TGI (LOX IMVI melanoma): > 100 µM
- TGI (UACC-257 melanoma): > 100 µM
- GI50 (OVCAR-5 ovarian): < 0.005 µM
- TGI (OVCAR-5 ovarian): > 100 µM
- GI50 (NCI-H522 lung): < 0.005 µM
- TGI (NCI-H522 lung): 0.0122 µM and < 0.01 µM
- GI50 (OVCAR-3 ovarian): < 0.01 µM
- TGI (OVCAR-3 ovarian): 0.651 µM
- GI50 (U251 CNS): < 0.005 µM
- TGI (U251 CNS): > 100 µM
- GI50 (NCI-H226 lung): 0.0179 µM and < 0.0156 µM
- TGI (NCI-H226 lung): > 50 µM
- TGI (HOP-92 NSCLC): > 100 µM
- GI50 (KM12 colon): < 0.005 µM
- TGI (KM12 colon): > 100 µM
- GI50 (HCC-2998 colon): < 0.005 µM
- TGI (HCC-2998 colon): > 100 µM
- GI50 (A498 renal): 0.00518 µM
- TGI (A498 renal): 0.387 µM
- GI50 (K-562 leukemia): < 0.005 µM
- TGI (K-562 leukemia): > 100 µM
- GI50 (SK-OV-3 ovarian): < 0.005 µM
- TGI (SK-OV-3 ovarian): > 100 µM
- GI50 (SR leukemia): < 0.005 µM
- TGI (SR leukemia): > 100 µM
- GI50 (SW-620 colon): < 0.005 µM
- TGI (SW-620 colon): > 100 µM
- GI50 (DU-145 prostate): < 0.005 µM
- TGI (DU-145 prostate): > 100 µM

Compound: C=C(CBr)CCCOCc1ccccc1
- TGI (SN12C renal): 57.3 µM
- TGI (HOP-62 NSCLC): 48.6 µM
- TGI (UACC-62 melanoma): 47.2 µM
- TGI (NCI-H460 lung): 35.3 µM
- TGI (NCI-H23 lung): 30.9 µM
- TGI (SK-MEL-28 melanoma): > 100 µM
- TGI (HCT-116 colon): > 100 µM
- TGI (786-0 renal): > 100 µM
- TGI (ACHN renal): 27.3 µM
- TGI (BT-549 breast): 35.4 µM
- TGI (SF-539 CNS): 34.8 µM
- TGI (OVCAR-8 ovarian): 32.2 µM
- TGI (HL-60(TB) leukemia): 72.6 µM
- TGI (HCT-15 colon): 68.2 µM
- TGI (SK-MEL-2 melanoma): 38 µM
- TGI (MOLT-4 leukemia): > 100 µM
- TGI (PC-3 prostate): 39.8 µM
- TGI (SK-MEL-5 melanoma): 35.9 µM
- TGI (UO-31 renal): 26.8 µM
- TGI (IGROV1 ovarian): 44.3 µM
- TGI (MALME-3M melanoma): 41.7 µM
- TGI (M14 melanoma): 31.9 µM
- TGI (RPMI-8226 leukemia): 64.7 µM
- TGI (SF-295 CNS): > 100 µM
- TGI (SNB-19 CNS): > 100 µM
- TGI (HT29 colon): 39.2 µM
- TGI (MCF7 breast): 77.1 µM
- TGI (A549 NSCLC): > 100 µM
- TGI (EKVX NSCLC): 46.6 µM
- TGI (CAKI-1 renal): 18.2 µM
- TGI (NCI/ADR-RES ovarian): 40 µM
- TGI (TK-10 renal): 36.3 µM
- TGI (MDA-MB-435): 88.2 µM
- TGI (OVCAR-4 ovarian): 38.2 µM
- TGI (SF-268 CNS): 32.5 µM
- TGI (CCRF-CEM leukemia): > 100 µM
- TGI (COLO 205 colon): 54 µM
- TGI (LOX IMVI melanoma): 92.9 µM
- TGI (UACC-257 melanoma): > 100 µM
- TGI (OVCAR-5 ovarian): 33.3 µM
- TGI (NCI-H522 lung): 49.1 µM
- TGI (OVCAR-3 ovarian): 37.6 µM
- TGI (U251 CNS): > 100 µM
- TGI (NCI-H226 lung): 41.5 µM
- TGI (HOP-92 NSCLC): 49.8 µM
- TGI (KM12 colon): 33.7 µM
- TGI (A498 renal): > 100 µM
- TGI (K-562 leukemia): > 100 µM
- TGI (SK-OV-3 ovarian): > 100 µM
- TGI (SR leukemia): 89.8 µM
- TGI (SW-620 colon): > 100 µM
- TGI (T-47D breast): > 100 µM
- TGI (DU-145 prostate): > 100 µM
